Reference: patent US20080021070A1, “PYRIDINE DERIVATIVES, PREPARATION AND THERAPEUTIC APPLICATION THEREOF” (SANOFI-AVENTIS, priority 2004, published 2008)

| melting point | SMILES |
| --- | --- |
| 135.5 °C | Cc1nc(-c2ccc(Cl)cc2)c(-c2ccc(Cl)cc2Cl)cc1CNC(=O)c1cc2ccccc2[nH]1 [Compound 3, N-{[-6-(4-chlorophenyl)-5-(2,4-dichlorophenyl)-2-methylpyridin-3-yl]methyl}-1H-indole-2-carboxamide] |
| 98 °C | Cc1nc(-c2ccc(Cl)cc2)c(-c2ccc(Cl)cc2Cl)cc1CNS(=O)(=O)c1ccc(C(F)(F)F)cc1 |
